{
  "source": "ChEMBL document CHEMBL1201862",
  "about": "“PubChem BioAssay data set” (2004)",
  "key": {"[1]": {"tested_on": "H9c2", "assay": "cells", "type": "functional, cell-based", "settings": "Rattus norvegicus, H9c2, Myocardium"}, "[2]": {"target": "T1, Cytochrome P450 1A2 (Homo sapiens, UniProt P05177)", "T1 sequence (P05177 whole entry)": "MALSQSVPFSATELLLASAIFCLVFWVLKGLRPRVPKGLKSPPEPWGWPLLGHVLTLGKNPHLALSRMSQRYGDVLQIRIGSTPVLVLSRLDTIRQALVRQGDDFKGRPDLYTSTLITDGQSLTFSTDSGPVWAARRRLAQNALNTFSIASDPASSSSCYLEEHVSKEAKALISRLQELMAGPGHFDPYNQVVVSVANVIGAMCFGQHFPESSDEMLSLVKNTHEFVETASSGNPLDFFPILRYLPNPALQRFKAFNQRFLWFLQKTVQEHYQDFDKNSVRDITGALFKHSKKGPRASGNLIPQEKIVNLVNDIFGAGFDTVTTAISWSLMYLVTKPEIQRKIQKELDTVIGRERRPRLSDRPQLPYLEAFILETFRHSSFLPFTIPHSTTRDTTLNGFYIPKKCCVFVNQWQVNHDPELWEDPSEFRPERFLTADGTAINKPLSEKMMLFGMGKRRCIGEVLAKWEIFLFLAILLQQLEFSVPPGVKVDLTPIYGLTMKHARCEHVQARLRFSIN"}, "[3]": {"target": "Cytochrome P450 2C19 (Homo sapiens, UniProt P33261)", "sequence (P33261 whole entry)": "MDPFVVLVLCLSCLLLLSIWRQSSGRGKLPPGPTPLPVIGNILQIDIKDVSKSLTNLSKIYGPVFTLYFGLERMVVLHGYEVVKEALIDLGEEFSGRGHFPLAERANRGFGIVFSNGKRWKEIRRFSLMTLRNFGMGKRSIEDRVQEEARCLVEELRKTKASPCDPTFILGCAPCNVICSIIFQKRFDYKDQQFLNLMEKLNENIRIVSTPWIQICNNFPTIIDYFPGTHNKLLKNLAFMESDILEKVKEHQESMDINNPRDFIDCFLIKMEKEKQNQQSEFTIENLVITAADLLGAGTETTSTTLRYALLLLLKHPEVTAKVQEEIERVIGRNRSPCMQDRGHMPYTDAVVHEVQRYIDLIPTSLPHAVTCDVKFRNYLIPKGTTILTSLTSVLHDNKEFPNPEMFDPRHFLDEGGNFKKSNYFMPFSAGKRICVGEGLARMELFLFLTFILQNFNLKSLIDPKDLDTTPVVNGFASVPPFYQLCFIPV", "assay": "Cytochrome panel assay with activity outcomes. Panel member name: p450-cyp2c19 Compounds with AC50 equal or less than 10 uM are considered active", "type": "functional"}, "[4]": {"target": "Cytochrome P450 2D6 (Homo sapiens, UniProt P10635)", "sequence (P10635 whole entry)": "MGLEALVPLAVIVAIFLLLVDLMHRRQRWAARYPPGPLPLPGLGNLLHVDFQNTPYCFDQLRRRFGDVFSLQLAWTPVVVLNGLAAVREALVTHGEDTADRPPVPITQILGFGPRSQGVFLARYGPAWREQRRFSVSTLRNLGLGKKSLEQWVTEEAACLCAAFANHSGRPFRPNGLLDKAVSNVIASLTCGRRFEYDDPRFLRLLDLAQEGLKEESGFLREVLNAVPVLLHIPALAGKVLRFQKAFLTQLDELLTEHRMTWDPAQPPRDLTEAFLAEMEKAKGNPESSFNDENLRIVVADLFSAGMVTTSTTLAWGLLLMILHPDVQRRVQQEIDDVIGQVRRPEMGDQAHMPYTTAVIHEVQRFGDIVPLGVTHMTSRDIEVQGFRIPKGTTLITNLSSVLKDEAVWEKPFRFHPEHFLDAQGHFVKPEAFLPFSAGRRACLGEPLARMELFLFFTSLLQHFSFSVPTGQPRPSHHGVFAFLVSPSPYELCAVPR"}, "[5]": {"tested_on": "BJ", "assay": "cells", "type": "functional, cell-based, Homo sapiens", "settings": "Homo sapiens, BJ"}, "[6]": {"tested_on": "BJ", "assay": "BJ-TERT fibroblast viability loss – cell-based, RAS-independent, luminescence, dose response (AID 1933)", "type": "functional, Homo sapiens", "settings": "Homo sapiens, BJ"}, "[7]": {"assay": "DRD fibroblast viability loss – cell-based, non-viral oncogenic, luminescence, dose response (AID 1934)", "type": "functional", "settings": "Homo sapiens"}, "[8]": {"tested_on": "BJ", "assay": "BJ-TERT-LT-ST fibroblast viability loss – cell-based, RAS-independent, luminescence, dose response (AID 1935);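 further: BJ fibroblasts immortalized with TERT plus LT and ST oncogenes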", "type": "functional, Homo sapiens", "settings": "Homo sapiens, BJ"}, "[9]": {"target": "Induced myeloid leukemia cell differentiation protein Mcl-1 (Homo sapiens, UniProt Q07820)", "sequence (Q07820 whole entry)": "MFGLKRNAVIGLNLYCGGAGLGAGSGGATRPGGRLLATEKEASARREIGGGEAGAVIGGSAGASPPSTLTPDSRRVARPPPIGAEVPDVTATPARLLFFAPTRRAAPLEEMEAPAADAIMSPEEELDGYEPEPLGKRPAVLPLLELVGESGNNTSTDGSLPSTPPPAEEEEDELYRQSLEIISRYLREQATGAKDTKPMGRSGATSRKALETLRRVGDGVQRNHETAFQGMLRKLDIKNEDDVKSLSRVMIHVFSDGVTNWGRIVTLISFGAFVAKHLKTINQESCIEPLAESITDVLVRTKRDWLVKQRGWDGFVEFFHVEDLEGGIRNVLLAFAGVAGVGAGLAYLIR", "type": "functional"}, "[10]": {"target": "T2, Corticotropin-releasing factor receptor 2/Corticotropin-releasing factor-binding protein (Homo sapiens, UniProt P24387+Q13324)", "T2 sequence (Q13324 whole entry)": "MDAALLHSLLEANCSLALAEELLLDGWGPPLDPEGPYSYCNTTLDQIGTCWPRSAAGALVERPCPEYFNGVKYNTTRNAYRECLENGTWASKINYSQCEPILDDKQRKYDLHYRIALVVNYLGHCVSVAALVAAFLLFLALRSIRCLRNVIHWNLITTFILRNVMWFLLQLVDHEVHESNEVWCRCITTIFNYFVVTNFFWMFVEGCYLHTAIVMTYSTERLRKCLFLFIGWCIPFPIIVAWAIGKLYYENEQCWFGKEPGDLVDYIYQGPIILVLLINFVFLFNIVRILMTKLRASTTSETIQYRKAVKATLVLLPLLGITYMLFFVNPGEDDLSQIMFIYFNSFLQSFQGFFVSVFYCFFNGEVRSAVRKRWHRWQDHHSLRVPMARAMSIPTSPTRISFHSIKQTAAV", "T2 sequence (P24387 whole entry)": "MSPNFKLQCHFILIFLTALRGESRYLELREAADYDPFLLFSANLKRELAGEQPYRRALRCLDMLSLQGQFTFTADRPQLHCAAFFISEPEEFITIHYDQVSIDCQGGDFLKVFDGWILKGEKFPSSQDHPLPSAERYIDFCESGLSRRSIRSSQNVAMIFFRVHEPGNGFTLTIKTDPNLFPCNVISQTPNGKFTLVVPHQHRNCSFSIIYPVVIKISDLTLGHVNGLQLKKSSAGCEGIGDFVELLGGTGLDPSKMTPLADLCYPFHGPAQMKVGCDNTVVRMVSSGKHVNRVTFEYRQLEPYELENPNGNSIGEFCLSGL", "assay": "activators of CRF receptor 2 with binding protein – uHTS hits, confirmation (AID 602473)", "type": "functional", "settings": "read-out: EC50_Mean"}, "[11]": {"target": "T2, Corticotropin-releasing factor receptor 2/Corticotropin-releasing factor-binding protein", "assay": "Dose Response confirmation of uHTS hits for small molecule antagonists of the CRF-binding protein and CRF-R2 receptor complex.", "type": "functional", "settings": "read-out: IC50_Mean"}, "[12]": {"assay": "viability of PTEN-deleted HCT116 cells – cell-based, HCT116 PTEN knockout, dose response (AID 1047);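 further: HCT116 colon tumor cells with PTEN knocked out; cells exposed to compound for 60 hours before readout; potency for loss of cell viability measured by luminescence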", "type": "functional"}, "[13]": {"tested_on": "INS1", "assay": "INS-1E survival protection against cytokine death – cell-based, luminescence, retest, dose response (AID 449756);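 further: cell death triggered by IL-1 beta plus TNF-alpha plus IFN-gamma mixture; protective hits raise ATP signal compared with cytokine alone wells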", "type": "functional", "settings": "Rattus norvegicus"}, "[14]": {"assay": "loss of viability in HepG2 cells – cell-based, CellTiter-Glo, cherry-picked, cytotoxicity control for Shn3 inhibitor project, dose response (AID 624134)", "type": "functional"}, "[15]": {"assay": "reduction of Shn3 3'UTR-driven luciferase in osteoblasts – cell-based, Clone20 osteoblasts, firefly luciferase, cherry-picked, dose response (AID 624132)", "type": "functional"}, "[16]": {"assay": "non-specific 3'UTR reporter inhibition in Clone20-Shn3RL – cell-based, Renilla luciferase, cherry-picked, counter-screen for Shn3 inhibitor project, dose response (AID 624133)", "type": "functional"}, "[17]": {"assay": "NIH3T3 cell viability loss – ATP luminescence, mouse fibroblasts, counter-screen, dose response (AID 2010);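 further: cells exposed to compound for about 90 hours before reading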", "type": "functional, cell-based"}, "[18]": {"assay": "cells", "type": "functional"}, "[19]": {"assay": "Trypanosoma cruzi growth suppression in host cells – NIH3T3 host cells, beta-gal luminescence, confirmation (AID 2044);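 further: intracellular parasites grown in NIH/3T3 mouse fibroblasts as host cells; luminescent beta-galactosidase reporter signal from transgenic T. cruzi replicating inside host cells; inhibitors lower the luminescence signal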", "type": "functional, cell-based"}},
  "note": "The source made the active and inactive calls.",
  "data": [
    {"smiles": "Cc1sc2nc(SCC(=O)N(C)C)nc(O)c2c1C", "values": [
      {"measurement": "IC50", "setting": "[1]", "value": "22.3 µM (active)"}
    ]},
    {"smiles": "CC(C)CCN(C(=O)CNC(=O)c1ccco1)C(C(=O)NC1CCCCC1)c1ccco1", "note": "(stereo not given)", "values": [
      {"measurement": "IC50", "setting": "[1]", "value": "17.4 µM (active)"}
    ]},
    {"smiles": "O=c1c2cnn(-c3ccccc3)c2nnn1/N=C/c1cccnc1", "values": [
      {"measurement": "AC50", "setting": "[2]", "value": "3.16 µM (inconclusive)"},
      {"measurement": "AC50", "setting": "[3]", "value": "inconclusive"},
      {"measurement": "AC50", "setting": "[4]", "value": "11.2 µM (inconclusive)"}
    ]},
    {"smiles": "Cn1c(=O)n(C)c2cc(NC(=O)CCl)ccc21", "values": [
      {"measurement": "EC50", "setting": "[5]", "value": "20.7 µM (inconclusive)"},
      {"measurement": "EC50", "setting": "[6]", "value": "18.8 µM (active)"},
      {"measurement": "EC50", "setting": "[7]", "value": "28 µM (active)"},
      {"measurement": "EC50", "setting": "[8]", "value": "> 75 µM (inconclusive)"}
    ]},
    {"smiles": "O=C(Nc1cccc(S(=O)(=O)N2CCOCC2)c1)c1c2c(nc3ccccc13)CCC2", "values": [
      {"measurement": "IC50", "setting": "[9]", "value": "5.02 µM (active)"}
    ]},
    {"smiles": "COc1ccc(C(=O)CSc2nnc(-c3ccco3)c(-c3ccco3)n2)cc1", "values": [
      {"measurement": "IC50", "setting": "[9]", "value": "6.58 µM (active)"}
    ]},
    {"smiles": "CCC(C)N1C(=O)S/C(=C/c2ccc3c(c2)n(C)c(=O)n3C)C1=O", "note": "(stereo not given)", "values": [
      {"measurement": "IC50", "setting": "[1]", "value": "> 79 µM (inactive)"}
    ]},
    {"smiles": "Cc1ccc(C(=O)OCC(=O)c2cc(C)n(CC3CCCO3)c2C)cc1", "note": "(stereo not given)", "values": [
      {"measurement": "EC50", "setting": "[10]", "value": "> 53 µM (inactive)"},
      {"measurement": "IC50", "setting": "[11]", "value": "> 47.1 µM (inactive)"}
    ]},
    {"smiles": "Cc1c(Cl)cccc1NC(=O)CNC(=O)Cc1nnc(O)c2ccccc12", "values": [
      {"measurement": "IC50", "setting": "[1]", "value": "> 79 µM (inactive)"}
    ]},
    {"smiles": "C=CCC[C@H](Cc1ccc(F)cc1)C(=O)OC[C@@H](Cc1c[nH]c2ccccc12)NC(=O)[C@@H](CC=C)CC(=O)NCCO", "values": [
      {"measurement": "IC50", "setting": "[1]", "value": "> 79 µM (inactive)"}
    ]},
    {"smiles": "COCCOC(=O)N/C=C\\c1nc(O)c2ccccc2n1", "values": [
      {"measurement": "IC50", "setting": "[1]", "value": "> 79 µM (inactive)"}
    ]},
    {"smiles": "O=c1c(O)c(-c2ccccc2)oc2cc(O)ccc12", "values": [
      {"measurement": "IC50", "setting": "[1]", "value": "> 79 µM (inactive)"}
    ]},
    {"smiles": "CCOC(=O)C1=C(C)N=C(C)/C(=C(/O)OCC)C1C(=O)OCC(=O)NC1CCCCC1", "note": "(stereo not given)", "values": [
      {"measurement": "IC50", "setting": "[1]", "value": "7.69 µM (active)"}
    ]},
    {"smiles": "Cc1cccc(NC(=O)CSc2cc(C(=O)c3nccn3C)c3ccccc3n2)c1", "values": [
      {"measurement": "EC50", "setting": "[12]", "value": "453 µM (active)"}
    ]},
    {"smiles": "O=C(O)C[C@H](O)C[C@H](O)/C=C/c1c(C2CC2)nc2ccccc2c1-c1ccc(F)cc1", "note": "[PITAVASTATIN CALCIUM]", "values": [
      {"measurement": "EC50", "setting": "[5]", "value": "4.21 µM (active)"},
      {"measurement": "EC50", "setting": "[6]", "value": "0.299 µM (active)"},
      {"measurement": "EC50", "setting": "[7]", "value": "0.353 µM (active)"},
      {"measurement": "EC50", "setting": "[8]", "value": "0.559 µM (active)"}
    ]},
    {"smiles": "CC[C@@H]1CCCCc2ccccc2[C@H](C(=O)C[C@H](O)CC(C)=O)OC1=O", "values": [
      {"measurement": "EC50", "setting": "[10]", "value": "> 53 µM (inactive)"},
      {"measurement": "IC50", "setting": "[11]", "value": "> 47.1 µM (inactive)"}
    ]},
    {"smiles": "CC(C)c1ccccc1-n1c(SCC(=O)N2CCc3ccccc3C2)nc2ccccc2c1=O", "values": [
      {"measurement": "AC50", "setting": "[13]", "value": "2.44 µM (active)"},
      {"measurement": "AC50", "setting": "[14]", "value": "55.4 µM (active)"},
      {"measurement": "AC50", "setting": "[15]", "value": "2.99 µM (active)"},
      {"measurement": "AC50", "setting": "[16]", "value": "3.83 µM (active)"}
    ]},
    {"smiles": "Cc1cc(NC(=O)c2cc([N+](=O)[O-])cc([N+](=O)[O-])c2)no1", "values": [
      {"measurement": "EC50", "setting": "[17]", "value": "> 60 µM (not active)"},
      {"measurement": "IC50", "setting": "[18]", "value": "13.3 µM (active)"},
      {"measurement": "EC50", "setting": "[19]", "value": "0.287 µM (active)"}
    ]},
    {"smiles": "CCOc1ccc(S(=O)(=O)N2CCN(C(=O)c3ccncc3)CC2)cc1", "values": [
      {"measurement": "EC50", "setting": "[10]", "value": "> 53 µM (inactive)"},
      {"measurement": "IC50", "setting": "[11]", "value": "> 47.1 µM (inactive)"}
    ]}
  ]
}
